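All cell lines were grown in 96-well plates and treated with compound for 48 hours. GI50 is the concentration that inhibits growth by half. TGI marks complete inhibition of growth.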

Among the test systems are HCT-15 colon; NCI/ADR-RES ovarian; HL-60(TB) leukemia; NCI-H460 lung; OVCAR-8 ovarian; SF-539 CNS; OVCAR-5 ovarian; MDA-MB-231 breast; HOP-92 NSCLC; COLO 205 colon.
Holding throughout (assay): NCI anticancer screen, dose series, 48 h

As to `C#CCOc1cccc(Nc2ncnc3c2ncn3C2CCN(C(=O)CCl)C2)c1` (stereo not drawn), the GI50 is 16.5 µM in the assay on HCT-15 colon; 41.3 µM in the assay with NCI/ADR-RES ovarian; 19.4 µM in the assay with HL-60(TB) leukemia; 43.2 µM in the assay on NCI-H460 lung; 30.7 µM in the assay on OVCAR-8 ovarian; 17.7 µM with SF-539 CNS. Also, the GI50 was 16.8 µM with OVCAR-5 ovarian, 18.6 µM in the assay with MDA-MB-231 breast and 19.1 µM with HOP-92 NSCLC. Moreover, the TGI in the assay on HCT-15 colon is 39.6 µM; with NCI/ADR-RES ovarian, greater than 100 µM; in the assay on HL-60(TB) leukemia it was 41.8 µM; in the assay with NCI-H460 lung, greater than 100 µM; in the assay on OVCAR-8 ovarian, greater than 100 µM; with SF-539 CNS, 32.4 µM. The TGI in the assay on OVCAR-5 ovarian stood at 31.6 µM; with MDA-MB-231 breast, 35.9 µM; in the assay with HOP-92 NSCLC, 39.6 µM.
For `O=C1C(Cl)=C(Nc2ccc3c(c2NC2=C(Cl)C(=O)c4ccccc4C2=O)C(=O)c2ccccc2C3=O)C(=O)c2ccccc21`, the GI50 with HCT-15 colon was 1.62 µM; with HL-60(TB) leukemia, 2.36 µM; in the assay on NCI-H460 lung it was 1.86 µM; in the assay with OVCAR-8 ovarian it was 2.72 µM; with SF-539 CNS it was 2.83 µM; in the assay on COLO 205 colon, 1.69 µM. The GI50 in the assay on OVCAR-5 ovarian was 2.06 µM; in the assay on MDA-MB-231 breast it was 1.67 µM; in the assay on HOP-92 NSCLC it was 2.03 µM. Moreover, the TGI is 4.19 µM in the assay on HCT-15 colon; 14 µM in the assay on HL-60(TB) leukemia; 5.85 µM with NCI-H460 lung; 9.6 µM with OVCAR-8 ovarian; 8.07 µM in the assay with SF-539 CNS; 3.72 µM in the assay with COLO 205 colon. Further, the results for the TGI with OVCAR-5 ovarian, in the assay with MDA-MB-231 breast and in the assay with HOP-92 NSCLC were 4.4 µM, 7.87 µM and 4.95 µM, respectively.
`OCCCCC#Cc1ccccc1C#Cc1cccs1`: the GI50 with HCT-15 colon is 13.1 µM; in the assay on NCI/ADR-RES ovarian, 17.7 µM; in the assay with NCI-H460 lung, 15.1 µM; with OVCAR-8 ovarian, 16.4 µM; in the assay with SF-539 CNS it was 12.9 µM; in the assay on COLO 205 colon it was 16.4 µM. For the same compound, the GI50 with OVCAR-5 ovarian was 16.1 µM; in the assay on MDA-MB-231 breast it was 10.6 µM; in the assay on HOP-92 NSCLC, 14.1 µM. The TGI in the assay on HCT-15 colon came out at 26.5 µM; in the assay on NCI/ADR-RES ovarian, 34.5 µM; in the assay with NCI-H460 lung, 29.8 µM; in the assay on OVCAR-8 ovarian, 31.2 µM; with SF-539 CNS it was 25.9 µM; with COLO 205 colon, 31.5 µM. For the same compound, the TGI in the assay on OVCAR-5 ovarian came out at 31.7 µM; in the assay with MDA-MB-231 breast, 23.3 µM; in the assay on HOP-92 NSCLC it was 28.7 µM.
In the case of `Cc1cc(Cl)ccc1Nc1nc(C(F)(F)F)ccc1C(=O)N/N=C/c1ccc(N(C)C)cc1`, the GI50 with HCT-15 colon was 0.481 µM; in the assay with NCI/ADR-RES ovarian, 2.21 µM; in the assay with HL-60(TB) leukemia, 1.44 µM; in the assay with NCI-H460 lung, 1.57 µM; in the assay with OVCAR-8 ovarian, 2.83 µM; in the assay on SF-539 CNS, 5.87 µM. Further, the GI50 is 2.59 µM in the assay on COLO 205 colon, 2.4 µM with OVCAR-5 ovarian and 1.37 µM with MDA-MB-231 breast. In addition, the TGI in the assay on HCT-15 colon, in the assay on NCI/ADR-RES ovarian, in the assay on HL-60(TB) leukemia, in the assay on NCI-H460 lung, in the assay with OVCAR-8 ovarian and in the assay with SF-539 CNS was greater than 100 µM throughout. Further, the TGI with COLO 205 colon, in the assay on OVCAR-5 ovarian and in the assay on MDA-MB-231 breast was greater than 100 µM throughout.
Consider `COc1ccc(NCc2c(O)ccc3ccccc23)cc1`, for which the TGI is greater than 100 µM in the assay on HCT-15 colon; greater than 100 µM in the assay on NCI/ADR-RES ovarian; greater than 100 µM in the assay on NCI-H460 lung; 29.2 µM in the assay with OVCAR-8 ovarian; 25.9 µM with SF-539 CNS; 94.3 µM in the assay with COLO 205 colon. Also, the TGI in the assay on OVCAR-5 ovarian is 49.3 µM; in the assay on MDA-MB-231 breast, greater than 100 µM; with HOP-92 NSCLC it was 29.6 µM.
With `COc1ccc2nc(C3=CN(C4OC(CO)C(O)C(O)C4O)C4C=CC=CC34)sc2c1` (stereo not drawn), the GI50 is 32.4 µM in the assay with HCT-15 colon; greater than 100 µM in the assay on NCI/ADR-RES ovarian; greater than 100 µM in the assay on NCI-H460 lung; 25.2 µM in the assay on OVCAR-8 ovarian; 29.3 µM in the assay with SF-539 CNS; 27.2 µM in the assay with COLO 205 colon. The GI50 in the assay on OVCAR-5 ovarian was 26.8 µM; in the assay with MDA-MB-231 breast, 23.9 µM; in the assay with HOP-92 NSCLC it was 67.4 µM. The TGI is greater than 100 µM in the assay on HCT-15 colon; greater than 100 µM in the assay on NCI/ADR-RES ovarian; greater than 100 µM in the assay on NCI-H460 lung; 77.8 µM with OVCAR-8 ovarian; 77.7 µM in the assay on SF-539 CNS; greater than 100 µM in the assay on COLO 205 colon. The TGI was 83.2 µM in the assay with OVCAR-5 ovarian, 61.6 µM in the assay with MDA-MB-231 breast and greater than 100 µM in the assay on HOP-92 NSCLC.
With `ClC1=C(Cl)C(Cl)=C(Cl)C1=Cc1ccc(Cl)cc1Cl`, the GI50 in the assay with HCT-15 colon is 0.3 µM; in the assay on NCI/ADR-RES ovarian, 0.276 µM; with HL-60(TB) leukemia, 0.403 µM; in the assay on SF-539 CNS it was 0.353 µM; with COLO 205 colon, 0.486 µM; in the assay with OVCAR-5 ovarian, 1.33 µM. Further, the GI50 was 0.29 µM in the assay with MDA-MB-231 breast and 0.633 µM in the assay on HOP-92 NSCLC. For the same compound, the TGI was 1.3 µM in the assay with HCT-15 colon; 0.926 µM with NCI/ADR-RES ovarian; 3.1 µM in the assay on HL-60(TB) leukemia; 1.4 µM in the assay on SF-539 CNS; 2.25 µM in the assay with COLO 205 colon; 4.01 µM in the assay on OVCAR-5 ovarian. Also, the TGI in the assay with MDA-MB-231 breast is 1.15 µM; with HOP-92 NSCLC, 2.56 µM.
On to `Cc1ccc2oc(=O)cc(C3c4ccc([nH]4)C(c4cc(=O)oc5ccc(C)cc45)c4ccc([nH]4)C(c4cc(=O)oc5ccc(C)cc45)c4ccc([nH]4)C(c4cc(=O)oc5ccc(C)cc45)c4ccc3[nH]4)c2c1` (stereo not drawn), for which the GI50 with HCT-15 colon was 0.0317 µM; in the assay on NCI/ADR-RES ovarian, 0.0313 µM; in the assay with NCI-H460 lung, 0.0375 µM; in the assay on OVCAR-8 ovarian, 0.0338 µM; in the assay on SF-539 CNS, 0.0239 µM; with COLO 205 colon, 0.165 µM. Moreover, the GI50 with OVCAR-5 ovarian is 0.106 µM; with MDA-MB-231 breast, 0.125 µM; with HOP-92 NSCLC, 0.106 µM. For the same compound, the TGI turned out to be 1.21 µM with HCT-15 colon; 1.1 µM in the assay with NCI/ADR-RES ovarian; 0.656 µM in the assay with NCI-H460 lung; 1.52 µM with OVCAR-8 ovarian; 0.0669 µM in the assay on SF-539 CNS; 0.353 µM with COLO 205 colon. The TGI was 2.71 µM with OVCAR-5 ovarian, 0.818 µM in the assay with MDA-MB-231 breast and 1.07 µM in the assay on HOP-92 NSCLC.
